Series [1] is described as follows: Compound was evaluated for toxic dose on locomotor assessed by rotarod test in mice. As to conditions: mouse, in vivo. Format: ADME. For orientation: In the rotarod test animals must keep their balance on a rotating rod.
The species named for series [2] is Mus musculus. Briefly: Compound was evaluated for anticonvulsant activity against audiogenic seizures in DBA/2 mice( clonic phase). Format: functional.
For series [3], the species on record is Mus musculus. The experiment in a line: Compound was evaluated for anticonvulsant activity against audiogenic seizures in DBA/2 mice( tonic phase). Format: functional.
For series [4], the species on record is Mus musculus. The experiment in a line: Compound was evaluated for anticonvulsant activity against MES induced seizures(tonic phase) in swiss mice. Format: functional.
Series [5] is filed under the species Mus musculus. The experiment in a line: Compound was evaluated for anticonvulsant activity against PTZ induced seizures (clonic phase) in swiss mice. Format: functional.
The species named for series [6] is Mus musculus. The experiment in a line: Compound was evaluated for anticonvulsant activity against audiogenic induced seizures after pretreatment with aniracetam (clonic phase); ND means not detected. Format: functional, organism-based.
Series [7] is filed under the species Mus musculus. The experiment in a line: Compound was evaluated for anticonvulsant activity against audiogenic induced seizures after pretreatment with aniracetam (tonic phase); ND means not detected. Type of series: functional, organism-based.
The species entered for series [8] is Mus musculus. Briefly: Compound was evaluated for anticonvulsant activity against AMPA induced seizures in DBA/2 mice( tonic phase). Type of series: functional.
The species named for series [9] is Mus musculus. Briefly: Compound was evaluated for anticonvulsant activity against AMPA induced seizures in DBA/2 mice( clonic phase). Format: functional.
The species named for series [10] is Mus musculus. The experiment in a line: Compound was evaluated for anticonvulsant activity against audiogenic induced seizures after pretreatment with aniracetam (tonic phase); p< 0.01. Type of series: functional.
Series [11] is filed under the species Mus musculus. Briefly: Compound was evaluated for anticonvulsant activity against audiogenic induced seizures after pretreatment with aniracetam (clonic phase); p< 0.01. Format: functional.
The species named for series [12] is Mus musculus. Briefly: Compound was evaluated for anticonvulsant activity against audiogenic induced seizures after pretreatment with aniracetam (tonic phase); p <0.01. Type of series: functional.
The species named for series [13] is Mus musculus. The experiment in a line: Compound was evaluated for anticonvulsant activity against audiogenic induced seizures after pretreatment with aniracetam (clonic phase); p <0.01. Type of series: functional.
For series [14], the species on record is Mus musculus. Briefly: Compound was evaluated for anticonvulsant activity against audiogenic induced seizures after pretreatment with aniracetam (clonic phase). Format: functional.
The species named for series [15] is Mus musculus. The experiment in a line: Compound was evaluated for anticonvulsant activity against audiogenic induced seizures after pretreatment with aniracetam (tonic phase). Type of series: functional.
A short description of series [16]: Ratio between TD50 and ED50 from the clonic phase of the audiogenic seizures was determined. Format: ADME.
The species entered for series [17] is Mus musculus. The experiment in a line: Compound was evaluated for anticonvulsant activity against audiogenic induced seizures after pretreatment with aniracetam (tonic phase); p<0.01. Type of series: functional.
For series [18], the species on record is Mus musculus. Briefly: Compound was evaluated for anticonvulsant activity against audiogenic induced seizures after pretreatment with aniracetam (clonic phase); p<0.01. Format: functional.

Activity calls are given as the source filed them. The rule behind the calls is not given here. A value given as a limit tells only on which side of the number the result lay.

Turning to `COc1ccc(C2=NNC(=O)Cc3cc4c(cc32)OCO4)cc1`, the TD50 in [1] was above 62.1 mg/kg. For the same compound, the ED50 in the series listed under Mus musculus [2] and in the series listed under Mus musculus [3] was above 37.2 mg/kg throughout.
In turn, `COc1cc2c(cc1OC)C(c1cccc(N)c1)=NNC(=O)C2` returned a TD50 in series [1] of 15.9 mg/kg.
In [1], `Nc1cccc(C2=NNC(=O)Cc3cc4c(cc32)OCO4)c1` displayed a TD50 of 29.8 mg/kg. In addition, the ED50 in the series listed under Mus musculus [4] turned out to be 5.7 mg/kg; in the series listed under Mus musculus [5], 11.9 mg/kg; in the series listed under Mus musculus [2], 5.32 mg/kg; in the series filed under Mus musculus [8], 7.03 mg/kg; in the series filed under Mus musculus [9], 8.62 mg/kg; in the series filed under Mus musculus [3] it was 3.74 mg/kg. The ED50 entry in the series filed under Mus musculus [6] and in the series filed under Mus musculus [7] was “inactive” throughout.
Consider `Nc1ccc(C2=NNC(=O)Cc3cc4c(cc32)OCO4)cc1`, for which the TD50 in series [1] came out at 29.3 mg/kg. The ED50 in the series filed under Mus musculus [4] came out at 9.48 mg/kg; in the series listed under Mus musculus [5], 21.2 mg/kg; in the series listed under Mus musculus [2] it was 6.44 mg/kg; in the series listed under Mus musculus [10], 11.7 mg/kg; in the series filed under Mus musculus [11], 18.5 mg/kg; in the series filed under Mus musculus [8] it was 8.41 mg/kg. The ED50 in the series filed under Mus musculus [9] turned out to be 11.2 mg/kg; in the series listed under Mus musculus [3], 3.22 mg/kg.
In [1], `O=C1Cc2cc3c(cc2C(c2ccccc2)=NN1)OCO3` came in with a TD50 of 44.6 mg/kg. Moreover, the ED50 in the series listed under Mus musculus [4] was determined as 12.6 mg/kg; in the series listed under Mus musculus [5], 23.1 mg/kg; in the series listed under Mus musculus [2], 12.1 mg/kg; in the series listed under Mus musculus [8] it was 16.8 mg/kg; in the series listed under Mus musculus [9], 20.8 mg/kg; in the series filed under Mus musculus [3], 11.4 mg/kg. The ED50 entry in the series filed under Mus musculus [6] and in the series listed under Mus musculus [7] was “inactive” throughout.
`COc1cc2c(cc1OC)C(c1ccc(N)cc1)=NNC(=O)C2` registered a TD50 in series [1] of 17.4 mg/kg. Further, the ED50 in the series listed under Mus musculus [4] turned out to be 4.92 mg/kg; in the series filed under Mus musculus [5], 6.99 mg/kg; in the series listed under Mus musculus [12] it was 18 mg/kg; in the series filed under Mus musculus [13] it was 20.2 mg/kg; in the series filed under Mus musculus [8], 7.73 mg/kg; in the series filed under Mus musculus [9] it was 9.93 mg/kg.
In turn, `COc1cc2c(cc1OC)C(c1ccccc1)=NNC(=O)C2` displayed a TD50 in [1] of 42.1 mg/kg. The ED50 in the series filed under Mus musculus [4] came to 10.6 mg/kg; in the series listed under Mus musculus [5] it was 19.1 mg/kg; in the series filed under Mus musculus [2], 10 mg/kg; in the series listed under Mus musculus [14], 60.2 mg/kg; in the series listed under Mus musculus [15], 44 mg/kg; in the series listed under Mus musculus [8], 11.9 mg/kg. For the same compound, the ED50 in the series listed under Mus musculus [9] came out at 18.5 mg/kg.
Regarding `O=C1Cc2cc3c(cc2C(c2ccc(O)cc2)=NN1)OCO3`, the TD50 in series [1] worked out at 44.7 mg/kg. In addition, the ED50 in the series listed under Mus musculus [2] came to 15.5 mg/kg; in the series listed under Mus musculus [3], 14.7 mg/kg. Besides, the selectivity ratio in series [16] was 2.9.
On to `CC1=NN=C(c2ccc(N)cc2)c2cc3c(cc2C1)OCO3` [GYKI-52466], for which, in [1], the TD50 is 22.3 mg/kg. Moreover, the ED50 in the series filed under Mus musculus [5] amounted to 20 mg/kg; in the series filed under Mus musculus [17] it was 29.3 mg/kg; in the series listed under Mus musculus [8], 11.9 mg/kg; in the series listed under Mus musculus [9], 16.8 mg/kg; in the series listed under Mus musculus [18] it was 39.3 mg/kg.

Broadly, the TD50 is the 50% point of the dose-response relation for the toxic effect studied. A lower TD50 goes with greater toxicity. For orientation: ED50 means the dose at which the effect has come halfway, by size or by number of responders.

The values are drawn from ChEMBL document CHEMBL1130796, “7,8-Methylenedioxy-4H-2,3-benzodiazepin-4-ones as novel AMPA receptor antagonists” (Bioorg Med Chem Lett, 1998).
